Data published in patent publication US10517867B2, “Posaconazole derivative, pharmaceutical composition and use thereof” (priority 2016, dated 2019).
Values after ≈ are worked out from the molar mass of the structure shown. Where two headings read alike, the source gives them in different places.

Legend:
[1] = system: Aspergillus fumigatus AF293; experiment: Lung Aspergillus fumigatus infection in immunosuppressed mice, intravenous administration; conditions: for responders at 20 mg/kg: Aspergillus fumigatus, AF293, in Mus musculus, iv; for lung fungal load: mouse lung tissue, seven days later, 20 mg/kg tail vein once daily for 5 days, mean ± SD
Experimental: ICR male mice were injected intraperitoneally with cyclophosphamide 150 mg/kg and injected subcutaneously with dexamethasone 150 mg/kg for 10 consecutive days. At the same time, the blood was taken to measure the changes of peripheral white blood cells and neutrophils, and mice with neutrophils consistently lower than 100/μl were selected as successfully immunosuppressed mice. Immediately after the last injection, the mice were anesthetized with ethyl ether, and mice were transferred from the initial state of excitement to inhibition. After their bodies were relaxed, the mice were immediately taken. Left hand was used to grasp the mouse to make it stand upright, the middle finger pressed the mouth so that it could breath only with the nose, and the ring finger gently pressed the abdomen to move the diaphragm muscle upward. 30 μl of conidia suspension (Aspergillus fumigatus AF293, 3×10^6 conidia) was sent to the nostrils of the anesthetized mice by a micropipette to allow spontaneous inhalation. After the mouse returned to normal breathing, it was returned to the cage. […] The death of the mice was observed and the survival time was recorded. Seven days later, the mice were sacrificed and their lung tissues were taken to observe the fungal loads of Aspergillus fumigatus in the lungs of the mice.

[2] = Determination of solubility in deionized water (HPLC, external standard); conditions: 25 °C, water, thermodynamic from solid
[3] = system: Aspergillus Fumigutus (AF) strains; experiment: Aspergillus fumigatus keratitis in rats, intravenous administration; conditions: 10 mg/kg tail vein once daily for 5 days; mean ± SD of 10 rats
[4] = system: Candida albicans ATCC10231; experiment: Candida albicans vaginitis in mice, intragastric administration; type: in vivo, KM mice; conditions: logarithm of the CFU values, mean ± SD of 20 mice, 20 mg/kg intragastric once a day
[5] = system: Candida albicans ATCC10231; experiment: Systemic fungal infection in mice, intragastric administration; type: in vivo, ICR mice; conditions: Candida albicans, ATCC10231, po
[6] = Solid stability test (stability chamber, HPLC total impurity); type: physicochemical
[7] = In vitro metabolic stability in rat plasma; type: in vitro ADME; conditions: rat, plasma, 37° C., 10 μM compound, read-out: Rat plasma T1/2
Summary of the method: (§1)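 Human or rat plasma, preincubated 5 min at 37 °C, or intestinal S9 at 37 °C, spiked from 1 mM stock; triplicates sampled at 1, 2, 5, 15 and 30 min into cold internal standard. HPLC quantitation; half-life by non-compartmental analysis.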

[8] = system: Candida albicans ATCC10231; experiment: Systemic fungal infection in mice, intravenous administration; type: in vivo, ICR mice
Experimental: ICR mice, weighing 18-22 g, male, provided by Hubei Experimental Animal Center.
Prior to the experiment, a small amount of Candida albicans was picked from an SDA (sacharomyces agar, the same below) medium kept at 4° C. with an inoculation loop and inoculated into 1 ml YPD (Yeast Extract Peptone Dextrose Medium) culture medium, cultured at 30° C. with 200 rpm shaking and activated for 16 hours, so that the fungus was in the late stage of exponential growth. Counted with a hemocytometer and the fungal solution concentration was adjusted to 1×10^3-5×10^3 CFU/ml with RPMI1640 medium (Roswell Park Memorial Institute 1640, the same below). Monoclonal Candida albicans on SDA plate was picked up, inoculated into 1 ml YPD (Yeast Extract Peptone Dextrose Medium, the same below) culture medium, cultured at 35° C., 200 rpm for 16 hours until late exponential growth phase. Candida albicans was inoculated into fresh medium for culturing for 6 hours at 1%, centrifuged at 1000×g for 5 minutes, washed with physiological saline three times until the supernatant was colorless, counted with a hemocytometer, and the cell concentration was adjusted to 5×10^6 cells/ml. A tail vein injection of 0.1 ml/10 g caused a systemic fungal infection in mice. […] A total of 7 days of observations were performed. All dead mice were burned with ethanol.

[9] = In vitro metabolic stability in human intestine S9; type: in vitro ADME; conditions: human, intestinal S9; 37° C., 10 μM compound, 1 mg/mL S9, NADPH regeneration system; read-out: Human intestine S9 T1/2
Summary of the method: as §1

[10] = In vitro metabolic stability in human plasma; type: in vitro ADME; conditions: human, plasma, 37° C., 10 μM compound, read-out: Human plasma T1/2
Summary of the method: as §1

[11] = In vitro metabolic stability in rat intestine S9; type: in vitro ADME; conditions: rat, intestinal S9, pH 7.4; 37° C., 10 μM compound, 1 mg/mL S9, NADPH regeneration system; read-out: Rat intestine S9 T1/2
Summary of the method: as §1

[12] = 24 h, read-out: survival rate of mice, day 1, 20 mg/kg tail vein once daily for 5 days, day 1
[13] = 48 h, read-out: survival rate of mice, day 2, 20 mg/kg tail vein once daily for 5 days, day 2
[14] = 72 h, read-out: survival rate of mice, day 3, 20 mg/kg tail vein once daily for 5 days, day 3
[15] = 96 h, read-out: survival rate of mice, day 4, 20 mg/kg tail vein once daily for 5 days, day 4
[16] = 120 h, read-out: survival rate of mice, day 5, 20 mg/kg tail vein once daily for 5 days, day 5
[17] = 144 h, read-out: survival rate of mice, day 6, 20 mg/kg tail vein once daily for 5 days, day 6
[18] = 168 h, read-out: survival rate of mice, day 7, 20 mg/kg tail vein once daily for 5 days, day 7
[19] = 24 h, read-out: survival rate of mice, day 1, 20 mg/kg intragastric once daily for 5 days, day 1
[20] = 48 h, read-out: survival rate of mice, day 2, 20 mg/kg intragastric once daily for 5 days, day 2
[21] = 72 h, read-out: survival rate of mice, day 3, 20 mg/kg intragastric once daily for 5 days, day 3
[22] = 96 h, read-out: survival rate of mice, day 4, 20 mg/kg intragastric once daily for 5 days, day 4
[23] = 120 h, read-out: survival rate of mice, day 5, 20 mg/kg intragastric once daily for 5 days, day 5
[24] = 144 h, read-out: survival rate of mice, day 6, 20 mg/kg intragastric once daily for 5 days, day 6
[25] = 168 h, read-out: survival rate of mice, day 7, 20 mg/kg intragastric once daily for 5 days, day 7
[26] = 24 h, read-out: survival rate of mice, day 1
[27] = 48 h, read-out: survival rate of mice, day 2
[28] = 72 h, read-out: survival rate of mice, day 3
[29] = 96 h, read-out: survival rate of mice, day 4
[30] = 120 h, read-out: survival rate of mice, day 5
[31] = 144 h, read-out: survival rate of mice, day 6
[32] = 168 h, read-out: survival rate of mice, day 7

SMILES | responders at 20 mg/kg [1, 12] | responders at 20 mg/kg [1, 13] | responders at 20 mg/kg [1, 14] | responders at 20 mg/kg [1, 15] | responders at 20 mg/kg [1, 16] | responders at 20 mg/kg [1, 17] | responders at 20 mg/kg [1, 18] | lung fungal load [1] | solubility at 30 min [2] | Amount of active fungi in cornea at day 7 [3] | responders at 20 mg/kg [5, 19] | responders at 20 mg/kg [5, 20] | responders at 20 mg/kg [5, 21] | responders at 20 mg/kg [5, 22] | responders at 20 mg/kg [5, 23] | responders at 20 mg/kg [5, 24] | responders at 20 mg/kg [5, 25] | Total impurity increment in 30 days [6] | half-life at 10 µM [7] | responders at 20 mg/kg [8, 26] | further results
CCC([C@H](C)OC(=O)C(O)C(O)COP(=O)(O)O)n1ncn(-c2ccc(N3CCN(c4ccc(OC[C@@H]5CO[C@@](Cn6cncn6)(c6ccc(F)cc6F)C5)cc4)CC3)cc2)c1=O (stereo partly shown) [ST0001] | 100% | 100% | 90% | 90% | 80% | 70% | 70% | 2.28 ± 0.77 10^4 CFU/ml | 47.7 mg/mL (≈ 53.1 mM) | 3.73 ± 0.63 10^3 CFU/ml | – | – | – | – | – | – | – | – | – | – | –
CC[C@@H]([C@H](C)O)n1ncn(-c2ccc(N3CCN(c4ccc(OC[C@@H]5CO[C@@](Cn6c[n+](C(C)OC(=O)N(C)c7ncccc7COC(=O)C[C@H](N)C(=O)O)cn6)(c6ccc(F)cc6F)C5)cc4)CC3)cc2)c1=O (stereo partly shown) [ST0004] | 100% | 90% | 80% | 80% | 70% | 60% | 50% | 3.51 ± 1.38 10^4 CFU/ml | > 50 mg/mL | 5.58 ± 1.12 10^3 CFU/ml | – | – | – | – | – | – | – | – | – | – | –
CC[C@@H]([C@H](C)O)n1ncn(-c2ccc(N3CCN(c4ccc(OC[C@@H]5CO[C@@](Cn6c[n+](C(C)OC(=O)N(C)c7ncccc7COC(=O)CCC(=O)O)cn6)(c6ccc(F)cc6F)C5)cc4)CC3)cc2)c1=O (stereo partly shown) [ST0005] | 100% | 90% | 80% | 80% | 70% | 60% | 50% | 3.40 ± 1.26 10^4 CFU/ml | > 50 mg/mL | 5.90 ± 1.06 10^3 CFU/ml | – | – | – | – | – | – | – | – | – | – | –
CC[C@@H]([C@H](C)O)n1ncn(-c2ccc(N3CCN(c4ccc(OC[C@@H]5CO[C@@](Cn6c[n+](C(C)OC(=O)N(C)c7ncccc7COC(=O)[C@@H](N)CCN)cn6)(c6ccc(F)cc6F)C5)cc4)CC3)cc2)c1=O (stereo partly shown) [ST0006] | 100% | 100% | 100% | 100% | 90% | 90% | 80% | 1.73 ± 0.34 10^4 CFU/ml | > 50 mg/mL | 1.92 ± 0.41 10^3 CFU/ml | 100% | 100% | 90% | 80% | 70% | 70% | 70% | – | – | – | vaginal fungal load of mice, day 3 ([4]; day 3): 4.32 ± 0.29; vaginal fungal load of mice, day 5 ([4]; day 5): 4.18 ± 0.20; vaginal fungal load of mice, day 7 ([4]; day 7): 3.49 ± 0.54; vaginal fungal load of mice, day 11 ([4]; day 11): 2.84 ± 0.37
CC[C@@H]([C@H](C)O)n1ncn(-c2ccc(N3CCN(c4ccc(OC[C@@H]5CO[C@@](Cn6c[n+](C(C)OC(=O)N(C)c7ncccc7COC(=O)[C@@H](N)CC(N)=O)cn6)(c6ccc(F)cc6F)C5)cc4)CC3)cc2)c1=O (stereo partly shown) [ST0023] | – | – | – | – | – | – | – | – | > 50 mg/mL | – | 100% | 100% | 90% | 90% | 90% | 80% | 80% | 0.42% | 0.55 ± 0.78 min | 100% | responders at 20 mg/kg [8, 27]: 100%; responders at 20 mg/kg [8, 28]: 100%; responders at 20 mg/kg [8, 29]: 100%; responders at 20 mg/kg [8, 30]: 100%; responders at 20 mg/kg [8, 31]: 90%; responders at 20 mg/kg [8, 32]: 90%; half-life at 10 µM [9]: 15 ± 3.78 min; half-life at 10 µM [10]: 0.94 ± 0.15 min; half-life at 10 µM [11]: 16.7 ± 2.96 min
CC[C@@H]([C@H](C)O)n1ncn(-c2ccc(N3CCN(c4ccc(OC[C@@H]5CO[C@@](Cn6c[n+](C(C)OC(=O)N(C)c7ncccc7COC(=O)[C@@H](N)CO)cn6)(c6ccc(F)cc6F)C5)cc4)CC3)cc2)c1=O (stereo partly shown) [ST0025] | – | – | – | – | – | – | – | – | > 50 mg/mL | – | 100% | 100% | 90% | 90% | 80% | 80% | 80% | 0.55% | 1.22 ± 0.85 min | 100% | responders at 20 mg/kg [8, 27]: 100%; responders at 20 mg/kg [8, 28]: 100%; responders at 20 mg/kg [8, 29]: 100%; responders at 20 mg/kg [8, 30]: 100%; responders at 20 mg/kg [8, 31]: 90%; responders at 20 mg/kg [8, 32]: 90%; half-life at 10 µM [9]: 25 ± 4.76 min; half-life at 10 µM [10]: 0.92 ± 0.03 min; half-life at 10 µM [11]: 22.5 ± 5.96 min
